{"source": "patent US10974293B2", "about": "“Device for phyto-ecological monitoring” (priority 2014, dated 2021)", "tested_on": "lettuce", "format": "in vivo, Lactuca vulgaris", "settings": "arsenic in water 0 to 100 ppm", "excerpt": "The arbuscular mycorrhizal spore germination and growth assay (a) consists of a glass slide (22) with a strip of blotter paper (25) of the same width as the glass slide overlain upon it. A semi-circle of gridded, nitrocellulose filter paper is laid on top of the blooter paper. Fungal spores are then placed into one or more segments of the grid, and then covered with a cover slip (not shown). The entire assembly is then held together using non-toxic retainer rings, or alternatively glued together with a non-toxic glue. When the glass slide assay is placed into the slider cartridge (21, FIG. 5) and then into the device of current invention, and deployed in the field and exposed to moisture, the spores produce hyphae, which can be quantitatively observed using optical microscope. The degree of branching of hyphae can be used as outcome of the assay and correlated with contaminants present in the soil and/or water. The small seed germination assay (b) (FIG. 6) also contains a glass slide with two layers of fitted blotter paper strips (25): first layer of fitied blotter paper is the strip without holes, and a second blotter paper strip which has holes of about 2-3 mm in diameter as shown in FIG. 6. Plant seeds (26) are placed in one or more holes, and the assembly is then covered with a standard laboratory cover slip and held together by a non-toxic retaining ring or a glue. […]", "note": "Like-named read-outs stand apart in the source and are kept apart here.", "data": [{"molecule": "[AsH3]", "note": "[arsenic]", "values": [{"measurement": "root growth response to arsenic exposure", "setting": "horizontally grown seedlings", "value": "not evident"}, {"measurement": "root growth response to arsenic exposure", "setting": "vertically oriented seedlings", "value": "hermetic response (enhanced growth at low concentrations of a toxicant)"}]}]}
